# Assays:
# [1] = target: Serine/threonine-protein kinase PLK1 (Homo sapiens) (UniProt P53350); assay: Inhibition of PLK1 at 10 uM after 60 mins by TR-FRET assay
# [2] = target: Serine/threonine-protein kinase PLK3 (Homo sapiens) (UniProt Q9H4B4); assay: Inhibition of PLK3 at 10 uM after 60 mins by TR-FRET assay
# [3] = target: Mitogen-activated protein kinase 10 (Homo sapiens, UniProt P53779); assay: Inhibition of MAPK10 at 10 uM after 60 mins by TR-FRET assay
# [4] = target: Platelet-derived growth factor receptor alpha (Homo sapiens) (UniProt P16234); assay: Inhibition of PDGFRA at 10 uM after 60 mins by TR-FRET assay
# [5] = target: RAC-alpha serine/threonine-protein kinase (Homo sapiens) (UniProt P31749); assay: Inhibition of AKT1 at 10 uM after 60 mins by TR-FRET assay
# [6] = target: Mitogen-activated protein kinase 14 (Homo sapiens, UniProt Q16539); assay: Inhibition of recombinant p38alpha after 60 mins by TR-FRET assay
# [7] = target: T1, Aurora kinase A (Homo sapiens) (UniProt O14965); assay: Inhibition of Aurora A at 10 uM after 60 mins by TR-FRET assay
# T1 sequence (whole entry): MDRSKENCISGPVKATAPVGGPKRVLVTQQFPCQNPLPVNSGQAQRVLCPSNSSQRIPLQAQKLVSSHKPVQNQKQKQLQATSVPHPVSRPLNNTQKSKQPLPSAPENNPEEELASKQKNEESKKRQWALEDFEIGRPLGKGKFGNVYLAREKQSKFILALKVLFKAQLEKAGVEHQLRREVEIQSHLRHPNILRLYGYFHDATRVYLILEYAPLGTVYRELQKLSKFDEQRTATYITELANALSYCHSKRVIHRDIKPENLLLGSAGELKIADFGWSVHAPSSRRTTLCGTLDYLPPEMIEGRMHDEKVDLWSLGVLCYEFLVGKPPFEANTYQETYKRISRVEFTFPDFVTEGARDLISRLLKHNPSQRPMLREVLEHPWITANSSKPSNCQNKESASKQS
# [8] = target: Proto-oncogene tyrosine-protein kinase receptor Ret (Homo sapiens) (UniProt P07949); assay: Inhibition of RET at 10 uM after 60 mins by TR-FRET assay
# [9] = target: Cyclin-dependent kinase 1/cyclin B (Homo sapiens) (UniProt P06493+P14635+Q8WWL7+O95067); assay: Inhibition of CDK1/cyclin B at 10 uM after 60 mins by TR-FRET assay; format: protein-complex assay
# [10] = target: Tyrosine-protein kinase Lck (Homo sapiens) (UniProt P06239); assay: Inhibition of LCK at 10 uM after 60 mins by TR-FRET assay
# [11] = target: Dual specificity tyrosine-phosphorylation-regulated kinase 1B (Homo sapiens) (UniProt Q9Y463); assay: Inhibition of DYRK1B at 10 uM after 60 mins by TR-FRET assay
# [12] = target: Glycogen synthase kinase-3 beta (Homo sapiens) (UniProt P49841); assay: Inhibition of GSK3B at 10 uM after 60 mins by TR-FRET assay
# [13] = target: Mitogen-activated protein kinase 9 (Homo sapiens, UniProt P45984); assay: Inhibition of recombinant JNK2 after 60 mins by TR-FRET assay
# [14] = target: T2, Mitogen-activated protein kinase 1 (Homo sapiens, UniProt P28482); assay: Inhibition of recombinant ERK2 after 60 mins by TR-FRET assay
# [15] = target: Receptor-interacting serine/threonine-protein kinase 2 (Homo sapiens) (UniProt O43353); assay: Inhibition of RIPK2 at 10 uM after 60 mins by TR-FRET assay
# [16] = target: Serine/threonine-protein kinase MARK2 (Homo sapiens) (UniProt Q7KZI7); assay: Inhibition of MARK2 at 10 uM after 60 mins by TR-FRET assay
# [17] = target: Rho-associated protein kinase 2 (Homo sapiens) (UniProt O75116); assay: Inhibition of ROCK2 at 10 uM after 60 mins by TR-FRET assay
# [18] = target: Receptor tyrosine-protein kinase erbB-4 (Homo sapiens) (UniProt Q15303); assay: Inhibition of ERBB4 at 10 uM after 60 mins by TR-FRET assay
# [19] = target: Insulin receptor (Homo sapiens) (UniProt P06213); assay: Inhibition of INSR at 10 uM after 60 mins by TR-FRET assay
# [20] = target: Leucine-rich repeat serine/threonine-protein kinase 2 (Homo sapiens) (UniProt Q5S007); assay: Inhibition of LRRK2 at 10 uM after 60 mins by TR-FRET assay
# [21] = target: Calcium/calmodulin-dependent protein kinase type II subunit alpha (Homo sapiens) (UniProt Q9UQM7); assay: Inhibition of CAMK2A at 10 uM after 60 mins by TR-FRET assay
# [22] = target: Serine/threonine-protein kinase PLK2 (Homo sapiens) (UniProt Q9NYY3); assay: Inhibition of PLK2 at 10 uM after 60 mins by TR-FRET assay
# [23] = target: T2, Mitogen-activated protein kinase 1; assay: Inhibition of MAPK1 at 10 uM after 60 mins by TR-FRET assay
# [24] = target: Tyrosine-protein kinase ABL1 (Homo sapiens) (UniProt P00519); assay: Inhibition of ABL1 at 10 uM after 60 mins by TR-FRET assay
# [25] = target: Protein kinase C beta type (Homo sapiens) (UniProt P05771); assay: Inhibition of PRKCB1 at 10 uM after 60 mins by TR-FRET assay
# [26] = target: Cyclin-dependent kinase 5/CDK5 activator 1 (Homo sapiens) (UniProt Q00535+Q15078); assay: Inhibition of CDK5/p25 at 10 uM after 60 mins by TR-FRET assay; format: protein-complex assay
# [27] = target: cAMP-dependent protein kinase catalytic subunit alpha (Homo sapiens) (UniProt P17612); assay: Inhibition of PRKACA at 10 uM after 60 mins by TR-FRET assay
# [28] = target: Mitogen-activated protein kinase 8 (Homo sapiens, UniProt P45983); assay: Inhibition of recombinant JNK1 after 60 mins by TR-FRET assay
# [29] = test system: RAF proto-oncogene serine/threonine-protein kinase (Homo sapiens), P04049 [Y340D,Y341D]; assay: Inhibition of RAF1 Y340D, Y341D mutant at 10 uM after 60 mins by TR-FRET assay
# [30] = target: Protein-tyrosine kinase 2-beta (Homo sapiens) (UniProt Q14289); assay: Inhibition of PTK2B at 10 uM after 60 mins by TR-FRET assay
# [31] = target: Tyrosine-protein kinase SYK (Homo sapiens) (UniProt P43405); assay: Inhibition of SYK at 10 uM after 60 mins by TR-FRET assay
# [32] = target: Receptor-type tyrosine-protein kinase FLT3 (Homo sapiens) (UniProt P36888); assay: Inhibition of FLT3 at 10 uM after 60 mins by TR-FRET assay
# [33] = target: Cyclin-dependent kinase 2/cyclin A (Homo sapiens) (UniProt P24941+P20248+P78396); assay: Inhibition of CDK2/cyclin A at 10 uM after 60 mins by TR-FRET assay; format: protein-complex assay
# Sequence of Tyrosine-protein kinase ABL1 (Homo sapiens) (P00519 whole entry): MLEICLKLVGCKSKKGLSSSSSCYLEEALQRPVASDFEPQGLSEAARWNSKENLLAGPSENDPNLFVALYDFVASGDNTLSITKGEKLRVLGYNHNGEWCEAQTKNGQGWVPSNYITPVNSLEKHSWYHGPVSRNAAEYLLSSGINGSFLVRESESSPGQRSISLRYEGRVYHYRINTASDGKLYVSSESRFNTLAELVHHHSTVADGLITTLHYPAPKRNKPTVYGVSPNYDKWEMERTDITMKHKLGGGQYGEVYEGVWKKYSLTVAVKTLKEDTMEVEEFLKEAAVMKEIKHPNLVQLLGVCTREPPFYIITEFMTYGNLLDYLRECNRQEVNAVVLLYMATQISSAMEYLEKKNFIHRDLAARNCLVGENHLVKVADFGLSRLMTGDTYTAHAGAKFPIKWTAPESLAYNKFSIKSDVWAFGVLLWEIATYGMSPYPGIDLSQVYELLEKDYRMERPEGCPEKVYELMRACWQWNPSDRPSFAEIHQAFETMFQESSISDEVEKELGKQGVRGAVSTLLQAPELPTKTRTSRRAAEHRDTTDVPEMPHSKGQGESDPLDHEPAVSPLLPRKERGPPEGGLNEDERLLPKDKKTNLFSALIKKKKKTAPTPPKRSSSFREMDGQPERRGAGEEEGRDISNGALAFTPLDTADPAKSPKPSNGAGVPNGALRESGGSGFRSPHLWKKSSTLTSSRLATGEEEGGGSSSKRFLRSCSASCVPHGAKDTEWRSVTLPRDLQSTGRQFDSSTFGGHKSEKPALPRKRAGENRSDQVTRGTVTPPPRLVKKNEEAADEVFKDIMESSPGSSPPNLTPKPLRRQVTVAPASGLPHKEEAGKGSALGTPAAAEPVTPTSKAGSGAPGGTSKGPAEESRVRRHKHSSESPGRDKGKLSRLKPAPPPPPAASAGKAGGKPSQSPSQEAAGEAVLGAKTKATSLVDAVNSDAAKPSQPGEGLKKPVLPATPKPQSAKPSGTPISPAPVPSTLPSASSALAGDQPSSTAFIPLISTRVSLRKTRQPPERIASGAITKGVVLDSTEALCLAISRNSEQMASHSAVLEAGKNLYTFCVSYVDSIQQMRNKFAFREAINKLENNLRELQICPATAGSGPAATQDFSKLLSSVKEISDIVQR
# Sequence of Proto-oncogene tyrosine-protein kinase receptor Ret (Homo sapiens) (P07949 whole entry): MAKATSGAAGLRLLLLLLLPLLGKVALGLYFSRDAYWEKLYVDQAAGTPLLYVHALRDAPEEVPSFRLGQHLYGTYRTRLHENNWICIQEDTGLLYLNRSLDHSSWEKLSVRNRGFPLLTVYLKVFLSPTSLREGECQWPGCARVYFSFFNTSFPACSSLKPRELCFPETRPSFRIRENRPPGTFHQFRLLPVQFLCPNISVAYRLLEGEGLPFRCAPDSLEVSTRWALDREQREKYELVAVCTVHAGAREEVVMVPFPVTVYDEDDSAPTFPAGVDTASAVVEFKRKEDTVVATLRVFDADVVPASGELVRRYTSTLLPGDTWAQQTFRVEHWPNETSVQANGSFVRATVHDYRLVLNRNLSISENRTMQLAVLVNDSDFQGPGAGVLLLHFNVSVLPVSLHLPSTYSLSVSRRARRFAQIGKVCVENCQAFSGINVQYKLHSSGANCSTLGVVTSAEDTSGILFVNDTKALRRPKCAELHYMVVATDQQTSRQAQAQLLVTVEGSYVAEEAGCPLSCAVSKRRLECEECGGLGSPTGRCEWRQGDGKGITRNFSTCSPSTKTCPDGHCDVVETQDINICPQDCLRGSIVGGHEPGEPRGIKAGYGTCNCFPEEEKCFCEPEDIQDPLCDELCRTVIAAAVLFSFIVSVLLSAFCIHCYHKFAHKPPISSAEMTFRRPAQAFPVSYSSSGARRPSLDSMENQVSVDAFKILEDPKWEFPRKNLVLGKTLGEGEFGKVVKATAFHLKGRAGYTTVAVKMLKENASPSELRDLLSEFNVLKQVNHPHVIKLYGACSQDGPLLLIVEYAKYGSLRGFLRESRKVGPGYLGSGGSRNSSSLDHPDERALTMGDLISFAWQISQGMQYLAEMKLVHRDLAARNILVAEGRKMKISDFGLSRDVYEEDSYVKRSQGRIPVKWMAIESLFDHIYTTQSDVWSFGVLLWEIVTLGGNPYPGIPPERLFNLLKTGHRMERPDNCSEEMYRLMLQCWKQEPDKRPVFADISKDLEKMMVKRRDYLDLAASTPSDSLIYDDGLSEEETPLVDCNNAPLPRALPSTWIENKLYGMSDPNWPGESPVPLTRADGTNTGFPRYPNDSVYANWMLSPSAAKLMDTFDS
# Sequence of Serine/threonine-protein kinase PLK3 (Homo sapiens) (Q9H4B4 whole entry, looked up): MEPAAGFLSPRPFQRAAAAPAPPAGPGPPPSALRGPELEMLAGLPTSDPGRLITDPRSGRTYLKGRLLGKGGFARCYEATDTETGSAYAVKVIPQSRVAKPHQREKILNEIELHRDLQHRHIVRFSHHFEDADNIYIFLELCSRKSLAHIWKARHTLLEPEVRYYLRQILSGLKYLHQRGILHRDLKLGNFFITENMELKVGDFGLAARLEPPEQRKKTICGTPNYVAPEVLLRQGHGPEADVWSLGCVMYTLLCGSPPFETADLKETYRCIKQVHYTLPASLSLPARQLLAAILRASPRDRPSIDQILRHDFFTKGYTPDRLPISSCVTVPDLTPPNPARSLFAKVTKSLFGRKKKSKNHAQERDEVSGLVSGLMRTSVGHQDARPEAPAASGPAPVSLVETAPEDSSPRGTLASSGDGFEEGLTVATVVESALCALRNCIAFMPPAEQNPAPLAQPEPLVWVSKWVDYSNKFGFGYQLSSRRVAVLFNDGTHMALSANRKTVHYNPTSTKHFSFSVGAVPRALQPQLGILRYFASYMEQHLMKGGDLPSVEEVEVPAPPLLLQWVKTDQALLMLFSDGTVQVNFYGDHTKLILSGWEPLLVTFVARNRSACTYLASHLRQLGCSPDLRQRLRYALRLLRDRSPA
# Sequence of Dual specificity tyrosine-phosphorylation-regulated kinase 1B (Homo sapiens) (Q9Y463 whole entry, looked up): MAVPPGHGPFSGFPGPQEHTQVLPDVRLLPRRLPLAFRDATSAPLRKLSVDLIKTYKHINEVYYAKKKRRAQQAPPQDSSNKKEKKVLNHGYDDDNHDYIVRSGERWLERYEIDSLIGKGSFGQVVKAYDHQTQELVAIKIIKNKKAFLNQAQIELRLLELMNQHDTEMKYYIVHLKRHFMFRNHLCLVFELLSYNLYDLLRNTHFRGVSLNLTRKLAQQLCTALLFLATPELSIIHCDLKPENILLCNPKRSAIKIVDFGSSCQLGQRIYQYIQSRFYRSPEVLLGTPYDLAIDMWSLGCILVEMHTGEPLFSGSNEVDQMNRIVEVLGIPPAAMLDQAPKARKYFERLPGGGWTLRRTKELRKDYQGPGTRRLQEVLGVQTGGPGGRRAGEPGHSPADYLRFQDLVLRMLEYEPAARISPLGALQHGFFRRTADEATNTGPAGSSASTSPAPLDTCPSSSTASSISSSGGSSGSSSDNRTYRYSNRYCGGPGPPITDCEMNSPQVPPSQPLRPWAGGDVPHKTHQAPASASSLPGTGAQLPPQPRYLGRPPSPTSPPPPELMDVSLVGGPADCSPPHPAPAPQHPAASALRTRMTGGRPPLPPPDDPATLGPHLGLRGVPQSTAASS
# Sequence of RAF proto-oncogene serine/threonine-protein kinase (Homo sapiens), P04049 [Y340D,Y341D] (P04049 whole entry Y340D/Y341D): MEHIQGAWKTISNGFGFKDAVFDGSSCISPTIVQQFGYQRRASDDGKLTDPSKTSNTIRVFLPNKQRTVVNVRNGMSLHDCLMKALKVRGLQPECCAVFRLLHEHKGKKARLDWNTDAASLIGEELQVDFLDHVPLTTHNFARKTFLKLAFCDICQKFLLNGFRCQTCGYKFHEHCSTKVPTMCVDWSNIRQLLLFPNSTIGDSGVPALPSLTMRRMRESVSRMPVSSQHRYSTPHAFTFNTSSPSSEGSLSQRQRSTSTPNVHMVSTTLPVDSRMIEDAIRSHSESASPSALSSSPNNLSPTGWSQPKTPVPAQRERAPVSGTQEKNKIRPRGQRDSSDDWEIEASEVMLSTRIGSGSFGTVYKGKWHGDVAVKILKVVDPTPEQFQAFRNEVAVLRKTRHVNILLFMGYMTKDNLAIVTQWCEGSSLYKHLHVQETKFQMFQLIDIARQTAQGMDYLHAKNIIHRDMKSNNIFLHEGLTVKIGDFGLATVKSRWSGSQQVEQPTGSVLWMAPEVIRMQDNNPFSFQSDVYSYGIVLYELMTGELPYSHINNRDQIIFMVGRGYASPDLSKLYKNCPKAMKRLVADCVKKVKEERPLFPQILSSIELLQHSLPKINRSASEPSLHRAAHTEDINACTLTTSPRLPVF
# Sequence of Protein kinase C beta type (Homo sapiens) (P05771 2-671 limits assumed): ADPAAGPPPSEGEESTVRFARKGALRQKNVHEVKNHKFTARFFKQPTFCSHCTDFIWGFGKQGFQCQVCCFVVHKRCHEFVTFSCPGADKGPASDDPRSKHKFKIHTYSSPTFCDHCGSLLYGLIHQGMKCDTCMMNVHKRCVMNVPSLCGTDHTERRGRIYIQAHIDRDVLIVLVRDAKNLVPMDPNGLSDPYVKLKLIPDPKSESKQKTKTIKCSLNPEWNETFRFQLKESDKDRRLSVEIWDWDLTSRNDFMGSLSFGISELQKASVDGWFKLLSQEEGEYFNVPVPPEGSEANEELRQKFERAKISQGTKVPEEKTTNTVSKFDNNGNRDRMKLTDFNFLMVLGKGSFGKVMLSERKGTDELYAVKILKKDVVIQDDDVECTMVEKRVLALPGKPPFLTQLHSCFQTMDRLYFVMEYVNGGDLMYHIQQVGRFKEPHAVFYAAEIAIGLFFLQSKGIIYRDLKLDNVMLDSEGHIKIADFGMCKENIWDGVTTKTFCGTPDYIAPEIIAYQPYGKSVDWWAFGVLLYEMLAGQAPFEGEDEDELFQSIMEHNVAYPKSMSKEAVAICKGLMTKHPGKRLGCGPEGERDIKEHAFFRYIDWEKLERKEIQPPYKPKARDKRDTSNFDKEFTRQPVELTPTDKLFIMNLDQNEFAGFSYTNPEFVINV
inhibition [1] [%],inhibition [2] [%],inhibition [3] [%],inhibition [4] [%],inhibition [5] [%],IC50 [6] [nM],inhibition [7] [%],inhibition [8] [%],inhibition [9] [%],inhibition [10] [%],inhibition [11] [%],inhibition [12] [%],IC50 [13] [nM],IC50 [14] [nM],inhibition [15] [%],inhibition [16] [%],inhibition [17] [%],inhibition [18] [%],inhibition [19] [%],inhibition [20] [%],SMILES,also measured
19,13,73,1,3,> 50000,30,11,10,-3,22,73,250,> 50000,6,4,10,3,8,25,O=c1[nH]nc(-c2ccnc(NC3CCOCC3)c2)n1-c1ccc2ccccc2c1,inhibition [21]: 11%; inhibition [22]: 33%; inhibition [23]: 5%; inhibition [24]: 5%; inhibition [25]: 11%; inhibition [26]: 24%; inhibition [27]: 6%; IC50 [28]: 1800 nM; inhibition [29]: 16%; inhibition [30]: 2%; inhibition [31]: 14%; inhibition [32]: 32%; inhibition [33]: 35%
2,-5,76,1,-2,> 50000,-5,3,8,9,18,13,97,> 50000,8,0,6,-3,2,-9,O=c1n(Cc2ccncc2)nc(-c2ccnc(NC3CCCCC3)c2)n1-c1ccc2ccccc2c1,inhibition [21]: 2%; inhibition [22]: 0%; inhibition [23]: 5%; inhibition [24]: -2%; inhibition [25]: 19%; inhibition [26]: -3%; inhibition [27]: 6%; IC50 [28]: 700 nM; inhibition [29]: -2%; inhibition [30]: 6%; inhibition [31]: 7%; inhibition [32]: 20%; inhibition [33]: 3%
5,32,86,7,0,> 50000,0,10,4,-6,39,15,97,> 50000,13,0,9,3,10,7,O=c1n(C2CCOCC2)nc(-c2ccnc(NC3CCCCC3)c2)n1-c1ccc2ccccc2c1,inhibition [21]: 19%; inhibition [22]: 26%; inhibition [23]: -1%; inhibition [24]: 5%; inhibition [25]: 7%; inhibition [26]: 3%; inhibition [27]: 13%; IC50 [28]: 420 nM; inhibition [29]: -3%; inhibition [30]: -2%; inhibition [31]: 26%; inhibition [32]: 8%; inhibition [33]: 0%
12,17,72,1,-1,> 50000,17,4,5,-10,20,38,69,> 50000,6,1,15,2,5,11,O=c1[nH]nc(-c2ccnc(NC3CCCCC3)c2)n1-c1ccc2ccccc2c1,inhibition [21]: 22%; inhibition [22]: 15%; inhibition [23]: 1%; inhibition [24]: 4%; inhibition [25]: 2%; inhibition [26]: 8%; inhibition [27]: 3%; IC50 [28]: 1000 nM; inhibition [29]: 13%; inhibition [30]: -3%; inhibition [31]: 8%; inhibition [32]: 12%; inhibition [33]: 2%
27,79,81,12,0,> 50000,10,37,4,4,76,81,130,22000,1,1,8,16,18,29,O=c1[nH]nc(-c2ccnc(NC3CCCOC3)c2)n1-c1ccc2ccccc2c1 (stereo not drawn),inhibition [21]: 38%; inhibition [22]: 62%; inhibition [23]: 1%; inhibition [24]: 17%; inhibition [25]: 10%; inhibition [26]: 15%; inhibition [27]: 47%; IC50 [28]: 740 nM; inhibition [29]: 0%; inhibition [30]: 11%; inhibition [31]: 70%; inhibition [32]: 23%; inhibition [33]: 3%
10,5,72,-10,-5,> 50000,2,-1,2,-2,1,7,93,> 50000,1,-2,5,-3,7,7,O=c1n(Cc2ccccn2)nc(-c2ccnc(NC3CCOCC3)c2)n1-c1ccc2ccccc2c1,inhibition [21]: 8%; inhibition [22]: 5%; inhibition [23]: -1%; inhibition [24]: 1%; inhibition [25]: 7%; inhibition [26]: 0%; inhibition [27]: 2%; IC50 [28]: 990 nM; inhibition [29]: 0%; inhibition [30]: -7%; inhibition [31]: 1%; inhibition [32]: 11%; inhibition [33]: -6%
